{"source": "patent US20230063321A1", "about": "“Methods for Treating Inflammatory Bowel Diseases with alpha4beta7 Integrin Antagonists” (Protagonist Therapeutics, Inc., priority 2020, published 2023)", "key": {"[1]": {"target": "T1, α4β7 (Homo sapiens, UniProt P13612+P26010)", "T1 construct": "endogenous in cells", "T1 sequence (P13612 34-1032)": "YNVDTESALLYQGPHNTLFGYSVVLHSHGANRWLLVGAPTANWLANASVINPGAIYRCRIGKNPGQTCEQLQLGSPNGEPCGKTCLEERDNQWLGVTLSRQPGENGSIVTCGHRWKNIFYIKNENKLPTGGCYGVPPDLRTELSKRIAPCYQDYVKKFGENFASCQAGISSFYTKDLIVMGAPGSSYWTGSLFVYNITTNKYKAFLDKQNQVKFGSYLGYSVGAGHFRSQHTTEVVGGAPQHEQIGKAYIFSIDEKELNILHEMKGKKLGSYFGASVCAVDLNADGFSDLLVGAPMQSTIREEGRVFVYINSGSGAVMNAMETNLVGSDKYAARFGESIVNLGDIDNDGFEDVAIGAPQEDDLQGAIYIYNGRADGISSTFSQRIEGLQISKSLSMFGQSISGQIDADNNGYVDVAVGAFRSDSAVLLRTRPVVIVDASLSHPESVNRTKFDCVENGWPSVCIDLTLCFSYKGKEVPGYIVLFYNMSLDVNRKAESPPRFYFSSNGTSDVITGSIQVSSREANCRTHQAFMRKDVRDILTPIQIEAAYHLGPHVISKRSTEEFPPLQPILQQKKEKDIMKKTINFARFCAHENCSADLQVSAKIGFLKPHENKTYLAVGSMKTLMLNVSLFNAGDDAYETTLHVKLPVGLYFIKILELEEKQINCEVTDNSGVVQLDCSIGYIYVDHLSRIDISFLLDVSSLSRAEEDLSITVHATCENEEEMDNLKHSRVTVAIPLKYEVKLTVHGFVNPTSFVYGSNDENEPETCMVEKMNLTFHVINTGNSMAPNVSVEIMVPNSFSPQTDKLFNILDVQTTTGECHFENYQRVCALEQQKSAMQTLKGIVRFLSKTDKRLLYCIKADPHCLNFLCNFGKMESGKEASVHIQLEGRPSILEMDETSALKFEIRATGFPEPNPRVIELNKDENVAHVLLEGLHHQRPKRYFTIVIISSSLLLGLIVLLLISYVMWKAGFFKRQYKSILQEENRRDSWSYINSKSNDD", "T1 sequence (P26010 20-798)": "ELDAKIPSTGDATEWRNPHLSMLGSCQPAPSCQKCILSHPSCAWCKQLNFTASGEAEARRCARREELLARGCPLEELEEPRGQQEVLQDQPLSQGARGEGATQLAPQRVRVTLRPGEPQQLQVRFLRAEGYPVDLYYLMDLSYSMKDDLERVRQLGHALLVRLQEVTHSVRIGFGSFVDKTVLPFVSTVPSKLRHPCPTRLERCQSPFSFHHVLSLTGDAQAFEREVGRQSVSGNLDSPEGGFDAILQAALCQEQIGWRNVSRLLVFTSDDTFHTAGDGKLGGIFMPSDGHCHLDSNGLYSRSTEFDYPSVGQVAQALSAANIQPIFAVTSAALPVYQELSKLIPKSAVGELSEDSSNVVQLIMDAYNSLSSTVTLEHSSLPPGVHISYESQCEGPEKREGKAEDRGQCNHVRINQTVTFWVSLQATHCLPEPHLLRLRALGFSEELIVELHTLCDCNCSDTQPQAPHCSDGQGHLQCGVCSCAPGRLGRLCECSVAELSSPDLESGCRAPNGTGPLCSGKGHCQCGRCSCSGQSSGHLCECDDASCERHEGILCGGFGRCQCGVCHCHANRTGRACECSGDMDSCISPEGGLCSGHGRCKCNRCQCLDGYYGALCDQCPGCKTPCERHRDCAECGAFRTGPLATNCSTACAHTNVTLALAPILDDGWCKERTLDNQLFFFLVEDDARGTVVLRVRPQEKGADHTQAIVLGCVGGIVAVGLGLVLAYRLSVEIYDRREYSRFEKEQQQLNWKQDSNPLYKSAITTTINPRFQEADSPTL", "test": "α4β7 internalization / surface expression by flow cytometry", "type": "cell-based", "description": "Blood samples from human donors were obtained from the Stanford Blood Center (Stanford, Calif.) under an RB-approved research protocol. Blood was drawn into BD Vacutainer sodium heparin blood collection tubes (BD Biosciences, Cat #362753). Peripheral blood mononuclear cells (PBMCs) were isolated from blood using a SepMate-50 tube and LymphoPrep per the manufacturer's protocol. CD4^+ T memory cells were enriched after PBMC isolation, using an EasySep kit (StemCell Technologies) per the manufacturer's protocol.\nAfter incubation, an aliquot of cells from each reaction was stained for α4β7 expression.\n(§1) After incubation, cells were washed extensively to remove excess peptide. For each reaction, an aliquot of cells was stained for α4β7 expression, while a separate aliquot was tested for adhesion to MAdCAM1.\nAn aliquot of cells were collected before and 24 h post peptide addition and stained for α4β7 expression. Afterwards, cells were extensively washed to remove excess peptide and incubated in fresh complete culture medium (without MnCl2) for an additional seven days. On day 1, 2, 4, 5, and 7 days after peptide washout, aliquots were stained for α4β7 expression.\nFollowing peptide incubation, an aliquot of each reaction was stained for surface expression of α4β7 in preparation for flow cytometry. Cells were stained at 4° C. for 30 minutes, washed twice in DPBS containing 0.5% BSA (PBS/BSA), incubated with streptavidin BV421 (diluted 1:1000) at 4° C. for 30 minutes, washed twice in PBS/BSA, and then resuspended in PBS/BSA for analysis. Where relevant, a “fluorescence minus one” (FMO) sample was used as the staining control.\nSamples were analyzed by flow cytometry on a BD (Franklin Lakes, N.J.) FACSVerse flow cytometer equipped with the following lasers: 405 nm (violet), 488 nm (blue), 561 nm (yellow-green), and 640 nm (red). CD4^+ T memory cells were identified as CD4^+, […], CD197^+ lymphocytes. α4β7 expression within CD4^+ T memory cells was identified based on staining with the Vedolizumab BV421 complex; staining was analyzed using BD FACSuite software, version 1.0.5. Where applicable, values were normalized to no-peptide controls and expressed as percentages to permit assessment of changes in the indicated parameter. Data were plotted and analyzed using Prism software (version 7; GraphPad, La Jolla, Calif.)."}, "[2]": {"target": "T2, α4β7 / MAdCAM1 (Homo sapiens, UniProt P13612+P26010)", "T2 construct": "endogenous in cells", "T2 sequence (P13612 34-1032)": "as the sequence (P13612 34-1032) above", "T2 sequence (P26010 20-798)": "as the sequence (P26010 20-798) above", "test": "Adhesion of CD4+ T memory cells to MAdCAM1", "type": "cell-based", "method": "as §1"}, "[3]": {"target": "T3, α4β7 integrin (Homo sapiens, UniProt P13612+P26010)", "T3 construct": "endogenous in cells; host or cells: primary human CD4+ T cells enriched from PBMCs of healthy donors", "T3 sequence (P13612 34-1032)": "as the sequence (P13612 34-1032) above", "T3 sequence (P26010 20-798)": "as the sequence (P26010 20-798) above", "test": "MAdCAM1-mediated cytokine production by CD4+ T-cells (MSD/luminex multiplex)", "type": "cell-based", "settings": "IFNγ, IL-5, IL-6, IL-10, IL-13, GM-CSF, TNFα; three donors", "method": "PBMCs were purified from three healthy human donors (Donors 7, 10, and 11), and enrichment of CD4+ T cells was performed."}, "[4]": {"settings": "male, human, in vivo; for Ctrough: po", "procedure": "Dose escalation proceeded from 100 mg, 300 mg, 1000 mg, 1400 mg. Subjects in the 300 mg dose cohort received treatment in the fasted state on one occasion and following a high fat meal on a second occasion in a crossover fashion. The high fat meal consisted of two eggs fried in butter, two strips of bacon, two slices of toast with butter, four ounces of hash brown potatoes and 240 ml of whole milk. During Part 1, subjects refrained from food and drink except water for 10 hours before and for four hours after dosing with the exception of subjects in the 300 mg dose cohort during the fed treatment.\nPart 2 was a randomized, placebo-controlled, double-blind multiple ascending dose study in 50 male subjects divided equally into 5 cohorts. […] Doses evaluated in Part 2 included 100 mg, 300 mg and 1000 mg. During Part 2, two cohorts of subjects (100 mg and 300 mg) received food approximately 30 minutes prior to each dose and another two cohorts of subjects (300 mg and 100 mg) refrained from food for 10 hours before and for 1 hour after dosing.\nStudy 1: The single and multiple ascending dose phase of the study consisted of sequential dose escalations in 10 subject per dose cohort. […] Dose solutions were formulated in 50 mM phosphate buffer pH 7.4 and were prepared weekly by a qualified pharmacist.\nBlood samples for pharmacokinetics were collected predose and for 48 hours postdose following single doses. In the multiple ascending dose phase, blood samples were obtained on Days 1-3 and 14-16; on Days 8 samples were obtained predose, 4, and 12 hours. On Day 10 of the MAD, subjects were required to collect all urine for the 0-6, 6-12, 12-18, and 18-24 hour intervals postdose and on Day 11 subjects were required to collect fecal samples.\nThe drug and internal standard were extracted from the matrix by a protein precipitation procedure. The limit of quantitation was 0.2 ng/mL, 20 ng/mL, and 100 ng/mL in plasma, urine, and feces, respectively. […] Coefficient of determinations for the calibration curves were at least 0.99 for all matrices. The interassay accuracy (% bias) ranged from −2.2% to 1.0% for plasma, −3.8% to 9.0% for urine and −5.0 to 5.2% for feces. Interassay precision (% CV) ranged from 3.7% to 7.7% for plasma, 2.8% to 7.0% for urine, and 1.2% to 5.2% for feces.\nPharmacokinetic parameters were estimated by noncompartmental methods using Phoenix WinNonlin (Certara, Princeton N.J.). Peak plasma concentration (Cmax) and time to peak plasma concentration (Tmax) were observed values. The elimination rate was estimated from the slope of the least-squares regression on the terminal log-linear phase. Area under the plasma concentration-time curve from time zero to the last quantifiable concentration (AUCt) was estimated by a linear trapezoidal method and was extrapolated to infinity (AUC∞) by dividing the last quantifiable concentration b the elimination rate."}, "[5]": {"target": "T4, α4β7 (Mus musculus, UniProt P26011+Q00651)", "T4 construct": "mice were euthanized and whole blood/plasma and Peyer's patches were collected; from tissue; host or cells: whole blood and Peyer's patches of C57BL/6 mice", "T4 sequence (Q00651 41-1039)": "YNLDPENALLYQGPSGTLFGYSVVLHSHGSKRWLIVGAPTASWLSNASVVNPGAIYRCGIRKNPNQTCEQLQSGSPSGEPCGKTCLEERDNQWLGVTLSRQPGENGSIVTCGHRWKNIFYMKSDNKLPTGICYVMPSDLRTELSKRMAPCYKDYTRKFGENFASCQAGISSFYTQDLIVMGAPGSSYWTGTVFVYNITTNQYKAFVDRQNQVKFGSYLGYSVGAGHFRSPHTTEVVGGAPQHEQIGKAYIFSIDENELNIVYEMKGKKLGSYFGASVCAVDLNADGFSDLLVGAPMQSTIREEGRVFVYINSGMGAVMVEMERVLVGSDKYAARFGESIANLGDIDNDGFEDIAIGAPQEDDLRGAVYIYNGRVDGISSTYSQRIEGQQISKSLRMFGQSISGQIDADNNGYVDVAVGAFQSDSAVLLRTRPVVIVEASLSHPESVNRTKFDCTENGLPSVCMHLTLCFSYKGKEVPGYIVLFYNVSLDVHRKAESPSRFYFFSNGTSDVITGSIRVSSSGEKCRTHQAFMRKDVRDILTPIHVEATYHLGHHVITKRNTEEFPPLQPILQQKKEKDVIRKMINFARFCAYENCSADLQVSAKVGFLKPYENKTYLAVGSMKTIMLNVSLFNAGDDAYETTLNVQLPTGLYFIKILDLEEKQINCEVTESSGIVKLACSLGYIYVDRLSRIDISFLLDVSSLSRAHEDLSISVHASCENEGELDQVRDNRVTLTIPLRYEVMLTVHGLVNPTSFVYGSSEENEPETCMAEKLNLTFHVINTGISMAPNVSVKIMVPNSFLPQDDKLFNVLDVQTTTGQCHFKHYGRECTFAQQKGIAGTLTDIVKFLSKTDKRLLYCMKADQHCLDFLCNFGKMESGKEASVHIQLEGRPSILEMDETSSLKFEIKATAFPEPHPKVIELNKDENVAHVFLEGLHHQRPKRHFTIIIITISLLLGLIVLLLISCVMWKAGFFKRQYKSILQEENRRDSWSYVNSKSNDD", "T4 sequence (P26011 20-806)": "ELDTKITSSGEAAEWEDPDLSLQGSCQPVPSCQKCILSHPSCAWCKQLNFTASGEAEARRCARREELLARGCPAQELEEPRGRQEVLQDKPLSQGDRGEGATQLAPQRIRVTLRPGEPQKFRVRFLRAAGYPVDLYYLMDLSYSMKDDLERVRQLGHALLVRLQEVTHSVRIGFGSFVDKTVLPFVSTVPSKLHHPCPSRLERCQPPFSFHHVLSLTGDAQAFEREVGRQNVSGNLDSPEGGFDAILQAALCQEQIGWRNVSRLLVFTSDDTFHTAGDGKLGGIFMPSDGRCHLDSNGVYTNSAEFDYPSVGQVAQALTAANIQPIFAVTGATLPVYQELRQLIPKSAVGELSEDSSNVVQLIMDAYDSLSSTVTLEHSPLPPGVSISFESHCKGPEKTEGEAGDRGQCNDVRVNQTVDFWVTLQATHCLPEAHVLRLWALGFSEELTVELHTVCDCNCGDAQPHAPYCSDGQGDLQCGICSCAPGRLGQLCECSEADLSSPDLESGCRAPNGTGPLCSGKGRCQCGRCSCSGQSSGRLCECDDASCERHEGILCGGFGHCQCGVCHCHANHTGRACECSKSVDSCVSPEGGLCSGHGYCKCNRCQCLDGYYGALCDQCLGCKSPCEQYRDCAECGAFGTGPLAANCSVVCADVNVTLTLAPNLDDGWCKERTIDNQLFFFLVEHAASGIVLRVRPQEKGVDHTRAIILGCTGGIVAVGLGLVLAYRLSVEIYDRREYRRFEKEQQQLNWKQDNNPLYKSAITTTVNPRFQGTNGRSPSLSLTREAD", "test": "α4β7 receptor occupancy in whole blood and Peyer's patches after oral dosing", "type": "in vivo, C57BL/6 mice", "procedure": "(§2) One hour following dosing, mice were euthanized and whole blood/plasma and Peyer's patches were collected. Peyer's patches were dispersed in 1 mL RPMI medium with 2% FBS without washing step. Whole blood and single cell suspension of Peyer's patches (100 uL out of 1 mL total) were submitted for flow cytometry to determine α4β7 receptor occupancy. % RO=(1−(% positive test sample/% positive median vehicle control))*100. Plasma and Peyer's patches dispersed in single cell suspension (500 uL of 1 mL total) were also analyzed for drug exposure."}, "[6]": {"test": "Drug exposure in plasma and Peyer's patches after oral dosing", "procedure": "as §2"}, "[7]": {"test": "28-day toxicology studies (NOEL)", "type": "in vivo, rats and cynomolgus monkeys", "settings": "standard allometric scaling and 10-fold safety margin", "method": "The starting dose in the first in human single and multiple dose study was based on consideration of the no observed effect level (NOEL) from 28-day toxicology studies in rats and cynomolgus monkeys, and the receptor occupancy noted in cynomolgus monkeys. The NOEL determined in rats and monkeys translated to a human equivalent dose of approximately 145 mg using standard allometric scaling and a 10-fold safety margin. A starting dose of 100 mg was selected with initial stepwise escalations of approximately 3-fold."}, "[8]": {"settings": "Donor 1, normalized to no-peptide control"}, "[9]": {"settings": "Donor 2, normalized to no-peptide control"}}, "note": "“And” between values parts separate entries of the source, which are not always exact repeats. Equal entries are not always repeated. Where two headings read alike, the source gives them in different places. Marks after values point to notes of the source that are not given here. Numbered stars: 1 amine (or outer) side, 2 acyl side, 3 side chain; on linkers, the order of the positions; unused ones are H or OH. Bridge positions count the residues as written; N and C are the ends. Square brackets hold non-standard residues; d marks the D form. Peptide text beside a SMILES is read from it. I, II: the chains in the order shown. ξ: configuration not given here. Phe(4-tBu) = CC(C)(C)c1ccc(C[C@H](N)C(=O)O)cc1; Diglycolyl = O=C(COCC(=O)[*:2])[*:1]; NMeR = CN[C@@H](CCCNC(=N)N)C(=O)O; β3hE = N[C@@H](CCC(=O)O)CC(=O)O; Thr(3ξ) = CC(O)[C@H](N)C(=O)O; X1 = O=C(c1ccccc1C[*:2])[*:1]; Pen = CC(C)(S)[C@H](N)C(=O)O"}
{"molecule": "CC(C)C[C@@H]1NC(=O)[C@H](C(C)O)NC(=O)[C@H](CC(=O)O)NC(=O)[C@H](CO)NC(=O)[C@H](CCCNC(=N)N)N(C)C(=O)c2ccccc2CSC(C)(C)[C@@H](C(=O)N[C@@H](Cc2ccc(C(C)(C)C)cc2)C(=O)N[C@@H](CCC(=O)O)CC(=O)N[C@H](CCCCNC(=O)COCC(=O)NCCCC[C@@H](NC(=O)C[C@H](CCC(=O)O)NC(=O)[C@H](Cc2ccc(C(C)(C)C)cc2)NC(=O)[C@H]2NC(=O)[C@H](CC(C)C)NC(=O)[C@H](C(C)O)NC(=O)[C@H](CC(=O)O)NC(=O)[C@H](CO)NC(=O)[C@H](CCCNC(=N)N)N(C)C(=O)c3ccccc3CSC2(C)C)C(=O)O)C(=O)O)NC1=O", "note": "(stereo partly drawn) [Compound A, ((2-Benzyl)-(N-Me-R)-Ser-Asp-Thr-Leu-Pen-(Phe(4-tBlu))-(β-homo-Glu)-(D-Lys)-OH)2 (SEQ ID NO: 5) and linker-DIG diglycolic acid] (I: [NMeR]SD[Thr(3ξ)]L[Pen][Phe(4-tBu)][β3hE][dK]-OH / II: [NMeR]SD[Thr(3ξ)]L[Pen][Phe(4-tBu)][β3hE][dK]-OH; linker I:9-II:9 via Diglycolyl; linker I:N-I:6, II:N-II:6 via X1)", "values": [{"measurement": "induced internalization of α4β7, time and concentration dependence", "setting": "[1]; CD4+ T memory cells, 10 nM for 0 to 48 h, 0-10 nM for 24 h", "value": "time (FIG. 15) and concentration (FIG. 16) dependent"}, {"measurement": "Maximal α4β7 expression reduction (%)", "setting": "[1]; [8]", "value": 53, "unit": "%"}, {"measurement": "Maximal α4β7 expression reduction (%)", "setting": "[1]; [9]", "value": 25, "unit": "%"}, {"measurement": "Maximal α4β7 expression reduction (%)", "setting": "[1]; Mean of two donors", "value": 39, "unit": "%"}, {"measurement": "additional incubation after washout until α4β7 expression recovered to control levels", "setting": "[1]; human PBMCs, 10 nM 24 h then washout", "value": "5 days and 4 to 5 days"}, {"measurement": "α4β7 expression MFI difference compared to FMO control (4219 MFI)", "setting": "[1]; human PBMCs, 10 nM, 24 h", "value": 20.6, "unit": "%"}, {"measurement": "α4β7 expression as measured by MFI", "setting": "[1]; human PBMCs, 10 nM, 24 h, without MnCl2", "value": 5090, "unit": "MFI"}, {"measurement": "Maximal adhesion reduction (%)", "setting": "[2]; [8]", "value": 38, "unit": "%"}, {"measurement": "Maximal adhesion reduction (%)", "setting": "[2]; [9]", "value": 36, "unit": "%"}, {"measurement": "Maximal adhesion reduction (%)", "setting": "[2]; Mean of two donors", "value": 37, "unit": "%"}, {"measurement": "R-squared, α4β7 expression reduction vs adhesion reduction", "setting": "[2]; first donor", "value": 0.968}, {"measurement": "R squared, α4β7 expression reduction vs adhesion reduction", "setting": "[2]; second donor", "value": 0.940}, {"measurement": "inhibition of MAdCAM1-mediated cytokine production", "setting": "[3]", "value": "Concentration-dependent and full inhibition"}, {"measurement": "AUCt (ng · h/mL)", "setting": "[4]; 100 mg", "value": "12.9 ± 7.27^ ng · h/mL"}, {"measurement": "AUCinf", "setting": "[4]; 300 mg", "value": "46.3 ± 19.2", "unit": "ng·h/mL"}, {"measurement": "AUCinf (ng · h/mL)", "setting": "[4]; 300 mg", "value": "43.9 ± 13.0^d ng · h/mL"}, {"measurement": "Cmax (ng/mL)", "setting": "[4]; 300 mg", "value": "4.72 ± 1.85^ ng/mL"}, {"measurement": "AUCt", "setting": "[4]; 450 mg", "value": "132 ± 106", "unit": "ng·h/mL"}, {"measurement": "AUCtau", "setting": "[4]; 450 mg", "value": "72.1 ± 54.7", "unit": "ng·h/mL"}, {"measurement": "Cmax", "setting": "[4]; 450 mg", "value": "5.98 ± 1.61", "unit": "ng/mL"}, {"measurement": "AUCinf", "setting": "[4]; 900 mg", "value": "160 ± 96.5", "unit": "ng·h/mL"}, {"measurement": "AUCt", "setting": "[4]; 900 mg", "value": "140 ± 74.4", "unit": "ng·h/mL"}, {"measurement": "AUCtau", "setting": "[4]; 900 mg", "value": "140 ± 74.4", "unit": "ng·h/mL"}, {"measurement": "Cmax", "setting": "[4]; 900 mg", "value": "22.8 ± 16.9", "unit": "ng/mL"}, {"measurement": "Ctrough", "setting": "[4]; 450 mg", "value": "3.25 ± 3.5", "unit": "ng/mL"}, {"measurement": "Ctrough", "setting": "[4]; 900 mg", "value": "1.78 ± 2.3", "unit": "ng/mL"}, {"measurement": "receptor occupancy in whole blood and Peyer's patches, 30 mg/kg vs 3 mg/kg dose group", "setting": "[5]; PO", "value": "significantly higher"}, {"measurement": "receptor occupancy in Peyer's patches compared to whole blood", "setting": "[5]; both dose groups (3 and 30 mg/kg PO)", "value": "significantly higher"}, {"measurement": "receptor occupancy at 30 mg/kg", "setting": "[5]; mouse, 30 mg/kg dose", "value": 100, "unit": "%"}, {"measurement": "concentration in plasma and Peyer's Patches vs dose", "setting": "[6]; 3 and 30 mg/kg", "value": "significant dose-dependent increase"}, {"measurement": "concentration in Peyer's Patches compared to plasma", "setting": "[6]; both dose levels (3 and 30 mg/kg)", "value": "significantly higher"}, {"measurement": "human equivalent dose of the NOEL", "setting": "[7]", "value": "approximately 145 mg"}]}
